Blank lines part the entries; values can stand above or below the molecule they belong to.
Experiments:
[1] = method code SF-HPLC, from DOI: 10.1248/bpb.16.154, PMID: 8364451
[2] = method code SF-AS, from DOI: 10.1002/qsar.19870060104
[3] = method code G-HPLC, from DOI: 10.6028/nbs.ir.81-2406
[4] = not given; remark: listed apart in the source
[5] = method code SF-GLC, from Hermens, J., & De Bruijn, J. (1987). A QSAR study for fish toxicity data of organophosphorus compounds. QSAR in Drug Design and Toxicology, 10, 343-345.
[6] = method code SF, from DOI: 10.1248/cpb.33.282, PMID: 4006019; details: pH 1.0
[7] = method code SF-HPLC, from DOI: 10.1021/jm010289a, PMID: 11754587; details: pH 7.0
[8] = method code SF-RC, from DOI: 10.1002/jps.2600840617, PMID: 7562417
[9] = method code SF-HPLC, from DOI: 10.1016/j.bmc.2011.10.084, PMID: 22130421; details: pH 7.4
[10] = method code SF-RC, from DOI: 10.1016/0006-2952(75)90159-8, PMID: 1168477
[11] = method code SF, from DOI: 10.1016/0006-2952(79)90429-5, PMID: 444298
[12] = not given; remark: listed apart in the source
[13] = method code SF-AS, from DOI: 10.1016/0304-4165(70)90354-5, PMID: 5474547; details: pH 7.4
[14] = not given; remark: listed apart in the source
[15] = method code SF-AS, from DOI: 10.1021/es00082a014; details: pH 7.0
[16] = not given; remark: listed apart in the source
[17] = not given; remark: listed apart in the source
[18] = method code SF-AS, from DOI: 10.1002/ps.2780370107; details: pH 0.0
[19] = method code SF-AS, from DOI: 10.1002/jps.2600600712, PMID: 4398902
[20] = method code SF-AS, from DOI: 10.1007/bf01067967, PMID: 3820093; details: pH 7.5
[21] = method code SF-GLC, from DOI: 10.1016/0147-6513(82)90020-3, PMID: 7106034
[22] = not given; remark: listed apart in the source
[23] = method code SF-HPLC, from DOI: 10.1124/dmd.30.12.1497, PMID: 12433825; details: pH 7.4
[24] = method code SF-GLC, from DOI: 10.1007/bf00212402, PMID: 7663085
[25] = not given; remark: listed apart in the source
[26] = not given; remark: listed apart in the source
[27] = not given; remark: listed apart in the source
[28] = not given; remark: listed apart in the source
[29] = method code SF, from DOI: 10.1021/jm00217a007, PMID: 17751; details: pH 9.0
[30] = method code SF, from DOI: 10.1016/0021-9673(91)85016-9; details: pH 7.0
[31] = from Bundgaard, H.; Hansen, A.; Larsen, C. (1979). Prodrugs as drug delivery systems. VII. Rapid cyclization of methyldiethylthiomalonurate to thiobarbital in aqueous solution. Archiv der Pharmazie - …; details: pH 3.5
[32] = method code SF-HPLC, from PMID: 1293941
[33] = method code SF-EPR, from DOI: 10.1016/0003-9861(82)90097-2, PMID: 6284047; details: pH 7.4
[34] = not given; remark: listed apart in the source
[35] = method code SF-AS, from DOI: 10.1111/j.2042-7158.1984.tb04385.x, PMID: 6145771; details: pH 9.2
[36] = method code SF, from PMID: 23342302; details: pH 7.4
[37] = method code SF-AS, from Korenman, Y.; Pazynin, T. (1972). Distribution of nitrosonaphthols between organic solvents and water. J. anal. chem. USSR, 27(4)723-725.; details: pH 2.0
[38] = method code SF-CR+AS, from Korenman, I.; Tishchenko, M.; Kombarova, A. (1977). Distribution of dihydroxynaphthalenes between higher alcohols and water. Zh. Prikl. Khim., 50(4)899-901.; details: pH 2.0
[39] = method code SF, from DOI: 10.1021/jm00010a006, PMID: 7752187
[40] = not given; remark: listed apart in the source
[41] = method code SF-AS, from DOI: 10.1021/jm00069a002, PMID: 8355246; details: pH 7.4
[42] = not given; remark: listed apart in the source
[43] = method code SF, from DOI: 10.1002/jps.2600620102, PMID: 4566530
[44] = not given; remark: listed apart in the source
[45] = method code SF-AS, from DOI: 10.1002/chin.198419165, PMID: 6653771; details: pH 2.5
[46] = method code …, from Wang, X.; Song, H. (1996). Determination of octanol-water partition coefficients of organic pollutants by using the dynamic coupled-column liquid chromatographic technique. Transactions of Tianjin …
[47] = not given; remark: listed apart in the source
[48] = not given; remark: listed apart in the source
[49] = method code SF, from Zheng, Y.; Wu, F.; Li, Y. (2001). Determination of ionization constant and partition coefficient of monoxidine. Journal of Shenyang Pharmaceutical University, 18(1)37-39.
[50] = method code SF, from DOI: 10.1515/bc.2002.085, PMID: 12108546

SMILES: O=C(O)CNC(=O)c1ccccc1O
logP [1]: 0.95

SMILES: O=c1ccoc2cc(O)ccc12
logP [2]: 1.44

SMILES: Cc1ccc(C)c(O)c1C
logP [3]: 2.67

SMILES: CC(Oc1ccc(Cl)cc1Cl)C(=O)O (stereo unspecified)
logP [4]: 3.43

SMILES: COP(=S)(OC)Oc1ccc(Cl)cc1C#N
logP [5]: 3.41

SMILES: CN1C(=O)C(=O)c2ccccc21
logD [7]: 0.63

SMILES: C=CCN(C(C)=O)C(C)C
logP [10]: 1.14

SMILES: O=C(O)/C=C/C(=O)c1ccccc1
logP [12]: 1.53

SMILES: Cc1cc2ccccc2[nH]1
logD [13]: 2.53

SMILES: C1COCCOCCOCCO1
logP [14]: -0.04

SMILES: Cc1cc(C)c(N)cc1C
logD [15]: 2.29

SMILES: NC(=O)c1cn(Cc2c(F)cccc2F)nn1
logP [17]: 0.88

SMILES: CCOP(=O)(O)Cc1ccc(Cl)cc1
logD [18]: 1.6

SMILES: ClC1=C(Cl)[C@]2(Cl)C3C(Cl)C(Cl)C(Cl)C3[C@@]1(Cl)C2(Cl)Cl (stereo partly specified)
logP [24]: 6.22

SMILES: Clc1cc(Cl)cc(C2(CC(Cl)(Cl)Cl)CO2)c1 (stereo unspecified)
logP [26]: 4.34

SMILES: O=c1ccn2c(n1)OC1C(O)C(CO)OC12 (stereo unspecified)
logD [30]: -2.85

SMILES: CCOP(=S)(OCC)Oc1nc(Cl)c(Cl)cc1Cl
logP [34]: 4.77

SMILES: O=Nc1ccc2ccccc2c1O
logD [37]: 2.57

SMILES: Oc1ccc2cccc(O)c2c1
logD [38]: 1.94

SMILES: c1ccc(Cn2cnnc2)cc1
logP [39]: 0.74

SMILES: Cc1c(O)c(=O)ccn1C(C)C
logD [41]: 0.05

SMILES: Cc1cc(C)c2oc(=O)sc2c1
logP [43]: 3.25

SMILES: ClC1(Cl)C2(Cl)C3(Cl)C4(Cl)C(Cl)(Cl)C5(Cl)C3(Cl)C1(Cl)C5(Cl)C24Cl (stereo unspecified)
logP [46]: 6.69

SMILES: CCNc1nc(Cl)nc(NC(C)(C)C#N)n1
logP [48]: 2.18

SMILES: COc1nc(C)nc(Cl)c1NC1=NCCN1
logP [49]: 1.08

Results, then the molecule that gave them:

logP: 2.25
SMILES: CCOC(=O)c1ccc(O)cc1

logD [6]: 1.14
SMILES: CCCCCC(=O)N(C)CC(=O)O

logP [8]: -3.17
SMILES: Nc1ccn(C[C@@H](CO)OCP(=O)(O)O)c(=O)n1

logD [9]: -0.38
SMILES: Cc1ncc([N+](=O)[O-])n1Cc1cn(CCF)nn1

logP [11]: -1.02
SMILES: O=NN(CCCl)C(=O)N[C@@H]1O[C@H](CO)[C@@H](O)[C@H](O)[C@H]1O

logP [16]: 1.85
SMILES: COc1cc(O)cc(C(C)=O)c1

logP [19]: 0.65
SMILES: CCN1CCCCCC1=O

logD [20]: 2.4
SMILES: CCCc1ccc(N)cc1

logP [21]: 1.68
SMILES: CCCCOCCOCCSC#N

logP [22]: 3.06
SMILES: CC(C)Nc1nc(Cl)nc(NC2CC2)n1

logD [23]: 1.34
SMILES: CCOc1ccccc1C(N)=O

logP [25]: 2.23
SMILES: CCOC(=O)c1ccccc1O

logP [27]: 4.8
SMILES: COc1c(Cl)c(Cl)c(Cl)c(OC)c1OC

logP [28]: 2.31
SMILES: CCCOc1ccc(O)cc1

logD [29]: 0.51
SMILES: CNC(=S)NCCCCc1c[nH]cn1

logD [31]: 1.82
SMILES: CCC(CC)(C(=O)NC(N)=S)C(=O)OC

logP [32]: 1.87
SMILES: CCOC(=O)c1ccc(N)cc1

logD [33]: 0.57
SMILES: CCC1(C)OCC(C)(C)N1O (stereo unspecified)

logD [35]: 0.32
SMILES: CNC(=S)NCCSCc1cncn1C

logD [36]: -0.87
SMILES: Cc1c(COC(CO)CF)[nH]c(=O)[nH]c1=O (stereo unspecified)

logP [40]: 3
SMILES: CCCCCCCCO

logP [42]: -0.56
SMILES: NC(N)=Nc1nc(CSCCC(N)=NS(N)(=O)=O)cs1

logP [44]: 2.52
SMILES: CCCCCC(CCO)C1N=N1 (stereo unspecified)

logD [45]: 1.75
SMILES: N#CCNc1ccccc1C(=O)O

logP [47]: 3.13
SMILES: CCCCc1ccncc1

logP [50]: -0.3
SMILES: CCCOC(=O)C1(C)CCC=[N+]1[O-] (stereo unspecified)
